Experimental findings from a melting point compilation (Tetko et al.) are described below.

Usually melting point stands for the temperature, or range, at which the solid turns liquid.

With `COc1cc(Cl)ccc1CO`, the melting point worked out at 47 °C. As for `COc1c(Br)ccc(C)c1C(=O)O`, the melting point worked out at 125 °C. Regarding `O=c1c2cc(F)ccc2nc(-n2cncn2)n1-c1ccc(Cl)cc1Cl`, the melting point came to 192 °C. `ON=Cc1ccc(F)cc1` gave a melting point of 83.5 °C. In turn, `O=C1CC(C(=O)OCc2ccccc2)N1` (stereo not given) gave a melting point of 137 to 138 °C. Molecule `O=C(O)c1sc(Br)c2c1OCCO2` registered a melting point of 150 °C. In the case of `Cc1ccc(C2NC(=O)NC(c3ccc(C)cc3)C2(C#N)C(=O)c2ccccc2)cc1` (stereo not given) it was 234 to 235 °C; in that of `CCOC(=O)c1[nH]c(C)c(CO)c1C`, 220 to 222 °C; in that of `Cc1nc(-c2ccc(C=O)s2)cs1`, 127 to 128 °C. As for `N[C@H](CCO)C(=O)O`, the melting point was 205 °C. Consider `CC(=O)Nc1cc(N=Nc2ccccc2)c(C)c(NC(C)=O)c1`, for which the melting point was 255 °C. For `Nc1cccc(CN2CCCCC2)c1` the value was 106 to 109 °C; for `FC1(F)C(Cl)=C(Cl)C(F)(F)C1(F)F`, -106 °C; for `C=C1C2CCC3C(CCC4C5(C)CCCC43C3OCCN3C5)(C2)C1O` (stereo not given), 120 °C. `CCCCc1ccc(C(=O)O)nc1` registered a melting point of 97 °C. `O=C(O)c1c(-c2ccccc2)nnc2ccccc12` showed a melting point of 216 °C. In turn, `O=C(O)[C@@H]1CCN1` registered a melting point of 206 to 207 °C. For `O=C1NC(=O)C2(c3ccc(Cl)cc3)c3ccccc3CCN12` (stereo not given) the value was 215 to 216 °C. `NNc1nc(-c2ccccc2)c2c(N)n[nH]c2n1` displayed a melting point of 241 to 244 °C. Molecule `Cc1noc2c1c(=O)n(-c1ccccc1)c1ccccc21` displayed a melting point of 283 °C. For `COCCOC` the value was -58 °C; for `O=C(c1cccc2ccccc12)C(Br)c1ccccc1` (stereo not given), 64 °C.

As for `COc1ccc(C(O)(c2cc(OC)c(OC)c(OC)c2)c2ccc(OC)cc2OC)c(OC)c1`, the melting point was determined as 109 °C.

With `O=C(O)Cc1ccc(Cl)cc1Cl`, the melting point was 129 °C. The molecule `CC1c2ccccc2C(=O)C1c1ccccc1` (stereo not given) showed a melting point of 84 to 85.5 °C. As for `COc1ccc(C(=O)c2cccs2)cc1`, the melting point was 73 to 76 °C. For `C=C1C(C)C2C(Cc3ccccc3)NC(=O)C23OC(=O)C=CC(O)CCCC(C)CC=CC3C1O` (stereo not given), the melting point was 218 to 223 °C. As for `COc1ccc2c(c1)CC1(CCC(O)(c3ccc(C(C)(C)C)cc3)CC1)C2O` (stereo not given), the melting point lay within 102 to 106 °C. `Cc1nc(-c2cccc(C(=O)O)c2)no1`: the melting point was in the range of 223 to 225 °C.

As for `CCOC(=O)c1cc2cc(Br)ccc2o1`, the melting point lay within 69 to 72 °C.

Take `O=C(O)c1c(C(=O)O)c(C(=O)O)c(C(=O)O)c(C(=O)O)c1C(=O)O`: the melting point worked out at 287 °C.

The molecule `CNC(=S)N(C)C` gave a melting point of 126 to 127 °C. For the molecule `CCCC(=O)Cl`, the melting point is -89 °C. `NNC(N)=O` registered a melting point of 96 °C. On to `C1CCC2NCCCC2C1` (stereo not given), for which the melting point lay in the range of 37.5 to 45 °C. In the case of `CN(C)C(CSS(=O)(=O)c1ccccc1)CSS(=O)(=O)c1ccccc1` it was 83.5 °C.

`CCSC(C)C`: the melting point is -122 °C. Molecule `Cc1ccc(O)c(N)c1` came in with a melting point of 136 °C. Molecule `O=C1OC(c2ccc(OP(=O)(O)O)cc2)(c2ccc(OP(=O)(O)O)cc2)c2ccccc21` registered a melting point of 198 °C.

Molecule `CCc1ssc(=O)c1-c1ccccc1` gave a melting point of 82 °C. In turn, `C/C(=N\CC(O)CO)c1c(O)c2ccccc2n(-c2ccccc2)c1=O` (stereo not given) yielded a melting point of 217 to 218 °C.

`Cn1ncc(C(=O)Cl)c1Cl` came in with a melting point of 50 to 52 °C. Consider `CC1(C)CC(=O)CC(C)(C)C1`, for which the melting point was in the range of 11 to 12 °C.

In the case of `COc1ccc(C2NCCc3sccc32)cc1` (stereo not given), the melting point fell in the range of 69 to 71 °C. Regarding `O=C(OCC1(COC(=O)c2cccnc2)CCCC(COC(=O)c2cccnc2)(COC(=O)c2cccnc2)C1O)c1cccnc1`, the melting point was 178 °C. `Cc1nc(-c2ccc(Br)cc2)no1`: the melting point was in the range of 98 to 99 °C. Take `CN1C(=O)NC(=O)C1(C)C`: the melting point is 163 °C. For `Cc1cncc(C(=O)O)c1` the value was 212 °C; for `O=C(OCc1ccccc1)c1cccnc1`, 22 °C; for `O=C(c1noc(-c2ccc([N+](=O)[O-])cc2)c1S(=O)(=O)c1ccccc1)c1cccc2ccccc12`, 160 °C. With `Nc1ccc(Cl)c(F)c1`, the melting point was 60 °C.

Consider `O=C1C=C(Nc2ccccc2)CCC1`, for which the melting point was in the range of 178 to 182 °C.

For the molecule `CC(=O)c1ccn(S(=O)(=O)c2ccccc2)c1`, the melting point is 89 to 92 °C.

As to `CC1CCS(=O)(=O)C1` (stereo not given), the melting point is 1 °C.

On to `O=[N+]([O-])c1ccc(NN=CC2=C(/C=C/c3ccccc3)CCCC2)c([N+](=O)[O-])c1`, for which the melting point lay within 261 to 262 °C.

`N#Cc1c(NC(=O)CN2CCOCC2)sc2c1CCCC2` gave a melting point of 178 to 179 °C.

Molecule `CCOC(=O)N1CCNCC1` yielded a melting point of 120 °C. `c1ccc(C(c2ccccc2)=P(c2ccccc2)(c2ccccc2)c2ccccc2)cc1` showed a melting point of 169 to 171 °C. As to `CC(C)(C)OC(=O)N[C@H](CC(=O)O)Cc1ccncc1`, the melting point was determined as 142 °C. The molecule `CCOc1ccc(-c2nnc3n2NC(c2ccc(OC)cc2)S3)cc1` (stereo not given) gave a melting point of 198 to 200 °C. `CN(C)c1ccccc1C(=O)O` came in with a melting point of 72 °C. Molecule `COc1c(F)cc(N)cc1Br` gave a melting point of 72 °C. For `COc1ccccc1-c1ccc(C=NO)o1` the value was 128 °C; for `C/C(=N\CCO)c1c(O)c2ccccc2n(-c2ccccc2)c1=O`, 201 to 202 °C; for `NC(=O)c1cnccn1`, 189 °C. In turn, `CNc1ccccn1` came in with a melting point of 15 °C. As for `CCCCCCCCCCCCCCCCN`, the melting point worked out at 46.8 °C. Regarding `CC12C=CC(=O)C=C1CCC1C3CC(O)C(O)(C(=O)CO)C3(C)CC(O)C12F` (stereo not given), the melting point was found to be 269 °C. On to `O=C(c1ccccc1)c1cc2c(cc1Br)OCCCO2`, for which the melting point lay within 105 to 107 °C.

Consider `CC(=O)c1ccc(NC(=O)CCl)cc1`, for which the melting point was in the range of 150 to 151 °C. `O=CC(Cl)=C(Cl)C(=O)O` came in with a melting point of 127 °C. Molecule `N#CC1=C(N)Oc2c(c(C(F)(F)F)nn2-c2ccccc2)C1c1ccccc1Cl` (stereo not given) displayed a melting point of 166 °C.

Take `Cn1[nH]c(N)c2c(=O)ccnc1-2`: the melting point is 218 °C.

On to `CC(=O)SCC(Cc1ccccc1)C(=O)NCC(=O)OCc1ccccc1` (stereo not given), for which the melting point was 89 °C. `Cc1ccc(SSc2ccc(C)cc2)cc1`: the melting point came out at 47.5 °C.

`Cc1nn(C)c(OCC(=O)c2ccccc2)c1C(=O)c1ccc(Cl)cc1Cl` returned a melting point of 112 °C. As for `Cc1nc2ccccc2[nH]c(=O)c1=NNc1ccc(Cl)cc1`, the melting point is 175 °C. Molecule `O=C1CN=C(c2ccccc2F)c2cc(Cl)ccc2N1CC1CC1` had a melting point of 118 °C. With `O=[N+]([O-])c1cc(Br)ccc1O`, the melting point amounted to 92 °C. Turning to `CCOC(=O)C(Cc1c[nH]c2ccccc12)NC(C)=O` (stereo not given), the melting point was found to be 106 °C. In turn, `COP(=S)(OC)Oc1ccc(S(=O)(=O)N(C)C)cc1` returned a melting point of 53 °C. `Cc1onc(-c2ccccc2Cl)c1C(=O)O` gave a melting point of 190 °C. `COc1cc(C(C)=O)cc(OC)c1OC` gave a melting point of 81 °C. For `CC(C)(NO)C(=NO)c1ccccc1` the value was 153 to 154 °C. For `CCCCCCCCCCCCCC1CCCCC1`, the melting point was 18.5 °C. Molecule `O=Cc1cccn1S(=O)(=O)c1ccccc1[N+](=O)[O-]` came in with a melting point of 139 to 141 °C.

Molecule `O=[N+]([O-])c1ccc(-c2nnc(S)s2)o1` registered a melting point of 175 to 177 °C. In turn, `CCOC(=O)C=Cc1ccccc1N` registered a melting point of 76 to 77 °C. The molecule `CC1(C)CC(=O)CC(C)(C)N1` showed a melting point of 36 °C. For `COc1ccc(-c2csc(/C(C#N)=C/c3ccc(Cl)cc3Cl)n2)cc1` the value was 142 °C; for `FC(Cl)CCl` (stereo not given), -60 °C. In the case of `C/C(OCCc1ccccc1)=C(/C#N)c1ccccc1` it was 118 °C. `CC(=O)c1ccc(F)cc1O`: the melting point was found to be 31.5 °C. For `CC1CCC(C(C)C)C(OC(=O)c2ccc(C(=O)OC3CC(C)CCC3C(C)C)cc2)C1` (stereo not given) the value was 75 °C; for `CCCCNC(=O)OCC(C)(CCC)COC(N)=O` (stereo not given), 50 °C. With `CCCCCCC(=O)c1ccccc1`, the melting point came out at 16.4 °C. For `N#Cc1ccc(C=NNC(N)=S)cc1` the value was 243 to 247 °C; for `NC(=O)N1c2ccccc2CCc2ccccc21`, 205 °C; for `COC(=O)C1=C(C(=O)OC)C2(CCl)c3ccccc3C1c1ccccc12`, 169 °C. Molecule `CCCCNC(=O)C(c1cc2ccccc2c2ccccc12)N(Cc1ccco1)C(=O)Cc1ccccc1` (stereo not given) displayed a melting point of 185 °C.

With `CC(=O)CCCCC(=O)O`, the melting point was 35 °C.

On to `Cc1onc(-c2c(F)cccc2Cl)c1C(N)=S`, for which the melting point worked out at 176 °C.

`O=C1CCCC(=O)N1`: the melting point is 156 °C. The molecule `O=C(O)c1c2c(nc3ccc(F)cc13)CCCCC2` returned a melting point of 289 to 291 °C. Consider `Nc1ncnc2c1ncn2C1OC(CI)C(O)C1O` (stereo not given), for which the melting point was in the range of 178 to 187 °C. In turn, `C=CC1CN2CCC1CC2C(O)c1ccnc2ccc(O)cc12` (stereo not given) had a melting point of 202 °C. In the case of `Cc1c(C)c(C)c2c(c1C)CC2=O` it was 160 to 161 °C; in that of `CC(CCC(=O)O)C1CCC2C3C(O)CC4CC(O)CCC4(C)C3CC(=O)C12C` (stereo not given), 220 °C. Turning to `O=C(Nc1c(Cl)cccc1Cl)C(C(F)(F)F)C(F)(F)F`, the melting point was 196 °C.

For `Nc1ccc(C(=O)O)c(Cl)c1`, the melting point fell in the range of 210 to 215 °C.
